Laboratory results published in patent publication US6906078B2, “Method of using (H+/K+) ATPase inhibitors as antiviral agents” (Pharmacia Corporation, priority 1994, dated 2005).
Read-outs that look alike come from different tables or passages of the source.

Columns and labels:
(H+/K+)-ATPase = target: T1, (H+/K+)-ATPase (Canis lupus familiaris, UniProt P50996); assay: Inhibition of (H+/K+)-ATPase from canine gastric mucosa (inorganic phosphate release); assay type: biochemical
T1 construct: The microsomes retained at the 15%-30% sucrose interface, after centrifugation at 250,000×g for sixty minutes, were used as the source of (H^+/K^+)-ATPase; from tissue; host or cells: gastric glandular mucosa of mongrel dogs (microsomal fraction, lyophilized)
T1 sequence (P50996 whole entry): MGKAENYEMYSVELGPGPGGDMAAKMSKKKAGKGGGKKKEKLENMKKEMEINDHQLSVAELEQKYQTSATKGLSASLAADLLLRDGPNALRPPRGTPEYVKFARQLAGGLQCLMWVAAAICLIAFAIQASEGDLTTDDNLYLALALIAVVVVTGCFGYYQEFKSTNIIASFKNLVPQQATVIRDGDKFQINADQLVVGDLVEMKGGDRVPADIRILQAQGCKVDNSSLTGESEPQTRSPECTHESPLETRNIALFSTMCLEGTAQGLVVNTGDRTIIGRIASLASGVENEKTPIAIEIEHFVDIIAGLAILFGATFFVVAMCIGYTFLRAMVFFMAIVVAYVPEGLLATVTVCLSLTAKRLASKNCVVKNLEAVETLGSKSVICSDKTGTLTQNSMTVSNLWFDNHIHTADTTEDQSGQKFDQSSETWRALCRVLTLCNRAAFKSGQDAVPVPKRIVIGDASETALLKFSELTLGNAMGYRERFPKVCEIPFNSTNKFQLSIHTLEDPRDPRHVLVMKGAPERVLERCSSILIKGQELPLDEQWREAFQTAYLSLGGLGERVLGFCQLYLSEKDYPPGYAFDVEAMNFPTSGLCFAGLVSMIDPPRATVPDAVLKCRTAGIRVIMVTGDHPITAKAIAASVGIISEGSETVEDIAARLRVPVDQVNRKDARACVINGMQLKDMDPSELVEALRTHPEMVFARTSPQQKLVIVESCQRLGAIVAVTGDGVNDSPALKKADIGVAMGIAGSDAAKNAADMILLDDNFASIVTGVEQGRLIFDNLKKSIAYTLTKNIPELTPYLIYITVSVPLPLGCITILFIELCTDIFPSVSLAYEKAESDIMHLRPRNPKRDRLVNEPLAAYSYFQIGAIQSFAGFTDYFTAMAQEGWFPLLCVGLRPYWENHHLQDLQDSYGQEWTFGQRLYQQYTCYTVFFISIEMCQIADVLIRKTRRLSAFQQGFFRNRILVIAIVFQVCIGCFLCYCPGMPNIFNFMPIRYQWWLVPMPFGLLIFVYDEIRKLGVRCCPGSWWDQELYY
T1 sequence (P33704 whole entry partner): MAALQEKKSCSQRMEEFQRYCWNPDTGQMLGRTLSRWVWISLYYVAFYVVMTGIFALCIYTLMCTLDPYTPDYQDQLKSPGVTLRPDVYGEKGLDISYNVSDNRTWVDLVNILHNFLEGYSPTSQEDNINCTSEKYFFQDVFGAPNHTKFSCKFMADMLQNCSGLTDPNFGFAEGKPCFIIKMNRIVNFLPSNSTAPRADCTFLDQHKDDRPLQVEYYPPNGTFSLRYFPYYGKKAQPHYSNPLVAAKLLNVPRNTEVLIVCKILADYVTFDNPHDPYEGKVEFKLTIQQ
Protocol: Mongrel dogs weighing 15 to 25 kilograms were fasted for twenty-four hours, with water provided ad libitum. The animals were anesthetized with pentobarbital and the stomachs were removed. Subsequent tissue manipulations and subcellular fractionations were performed at 0° C. to 4° C. After the stomachs were cut open and rinsed with tap water, the antral and cardiac regions were removed and the remaining tissue was rinsed three times in saline. The glandular mucosa was removed mechanically, chopped finely in a medium containing 10 mM Tris hydrochloride (pH 7.4) and 250 mM sucrose, and homogenized. The homogenate was centrifuged at 20,000×g for twenty minutes and the pellet discarded. The supernatant was then centrifuged at 150,000×g for ninety minutes and the supernatant discarded. The pellet was resuspended in the Tris-HCl/sucrose medium by homogenization. Part (2 ml) of the resultant microsomal suspension was layered onto a step gradient consisting of 9 ml of 15% sucrose above 12 ml of 30% sucrose, each sucrose solution being buffered with 10 mM Tris hydrochloride (pH 7.4) containing 0.01% sodium azide. The microsomes retained at the 15%-30% sucrose interface, after centrifugation at 250,000×g for sixty minutes, were used as the source of (H^+/K^+)-ATPase. Microsomal preparations were lyophilized, a process that assured potassium ion permiability, and stored at −10° C. until used.
(H^+/K^+)-ATPase activity for each test compound was determined, in duplicate, by measuring the release of inorganic phosphate, which was assayed according to the method of J. ChandraRajan and L. Klein, Anal. Biochem., 72 , 407 (1976). The (H^+/K^+)-ATPase assay medium consisted of 20 mm mes-Tris (pH 6.0), 5 mM magnesium chloride, 25 mM sucrose, and 4 mM Tris-ATP with or without 20 mM potassium chloride in a total volume of 2 ml. Microsomal suspensions (20 to 60 mcl, containing about 25 mcg protein) were added to the assay medium, without Tris-ATP, and then preincubated with a test compound for thirty minutes at 37° C. The assay was initiated by adding Tris-ATP and the mixture was incubated another thirty minutes at 37° C. A 200-mcl aliquot of the assay mixture was then added to 1.4 ml of a solution consisting of 0.1 M sodium acetate (pH 4.0) and 10% sodium dodecylsulfate, followed by the addition of 200 mcl each of 1% ammonium molybdate and 1% ascorbic acid. At least fifteen minutes later, the optical absorbance at 870 nm (which was proportional to inorganic phosphate concentration up to 100 nmoles per tube, as determined by a standard curve) was obtained. Enzyme activity was linear with incubation time.
(H^+/K^+)-ATPase activity is represented by the difference between the measured activities in the presence of potassium-ion (K^+-stimulated) and in the absence of potassium ion (basal).

[1] = target: HCMV protease (assemblin) (Human cytomegalovirus, UniProt P16753); assay: Enzymatic assay for HCMV protease (assemblin) inhibitors, fluorogenic substrate DE2; assay type: biochemical; conditions: for inhibition at 100 µM: read-out: Assemblin Inhibition % Inhibition at 100 μm
HCMV protease (assemblin), sequence (P16753 1-256): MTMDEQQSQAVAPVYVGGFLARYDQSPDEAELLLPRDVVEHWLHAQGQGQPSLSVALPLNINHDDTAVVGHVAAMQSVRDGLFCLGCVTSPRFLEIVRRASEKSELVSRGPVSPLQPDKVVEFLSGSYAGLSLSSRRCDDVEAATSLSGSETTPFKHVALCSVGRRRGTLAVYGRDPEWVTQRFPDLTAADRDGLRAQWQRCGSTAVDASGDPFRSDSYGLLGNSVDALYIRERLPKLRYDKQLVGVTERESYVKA
Protocol: The enzymatic assay for assemblin inhibitors compared the rate of product appearance between a control reaction containing no inhibitor and one that contained a known concentration of a potential inhibitor. There were two phases to the enzyme reaction. The first was a period of incubation of enzyme in the presence of inhibitor, but in the absence of the substrate. This incubation allowed for the inhibitor to bind and potentially block the enzyme from hydrolyzing the substrate. The second phase was started by adding the substrate and measuring the rate of product production.
The construction also encoded six additional histidine residues at the amino terminus of the protease. These additional histidine residues provided an affinity ligand by which it was purified using nickel-nitriloacetic acid-agarose (Qiagen).
The purified protease was stored as a 1-3 mg/ml stock solution in 50 mM sodium phosphate buffer, pH 7.4; 300 mM sodium chloride; 100 mM imidazole; 50% (v/v) glycerol. This stock was diluted with assay buffer to 4.8 μg/ml. A 100 μL aliquot of this solution was used in the enzyme reaction.
A specific substrate was synthesized based on the cleavage specificity of HCMV protease at the “maturation site” of the assembly protein (F. Liu and B. Roizman, J. Viral. 65, 5149 (1991), and A. R. Welch, et al, J. Viral., 65 4091 (1991)). The assembly protein maturation site has the sequence . . . AGVVNA*SCRLATA . . . (SEQ ID NO. 1); the substrate used was dabcycl-Abu-[…]-edans (SEQ ID NO. 2) (DE2). […] However, when the two chromophores are separated because of hydrolysis of the peptide moiety by HCMV protease the edans fluorescence was no longer quenched and an increase in fluorescence was realized. DE2 was stored as a stock solution at 160 μg/ml in dimethyl sulfoxide. This was diluted 10-fold with assay buffer to give a concentration of 16 μg/ml just before use. An aliquot of 50 μL was used in the reaction.
An assay Buffer (10 mM sodium phosphate buffer, pH 7.4; 150 mM sodium acetate; 0.1% CHAPS; and 20% (v/v) glycerol) was used to dilute stock solutions of enzyme and substrate.
Inhibitors were dissolved in dimethyl sulfoxide at 16-times the final assay concentration. A 10 μL aliquot of this inhibitor solution was used in the reaction.
A 100 μL aliquot of enzyme solution (4.8 μg/ml) was mixed with 10 μL of inhibitor solution in a 96-well plate cell and incubated at 22° C. for 30 minutes. Control reactions contained 10 μL of dimethylsulfoxide instead of inhibitor solution. After the preincubation was completed, 50 μL of substrate solution was added and the fluorescence recorded every 5 minutes for a period of 30 minutes. All reactions were run in triplicate with the exception of the uninhibited control reaction which was replicated 6-fold. The change in fluorescence was recorded over time and an average rate for each set of 3 reactions was calculated. Fluorescence assays were subject to spurious various due to factors such as dust in the 96-well plate; such results were omitted from the calculation of relative rates.

gastric acid secretion = assay: Inhibition of gastric acid secretion in gastric fistula beagle dogs (histamine-stimulated); assay type: in vivo; conditions: for inhibition in vivo at 3 mg/kg: Canis lupus familiaris, 4 h, read-out: Gastric-Fistula Beagle % Inhibition (3 mg/kg dose)
Source text: Adult female beagle dogs weighing 6 to 11 kilograms obtained from Laboratory Research Enterprises (Kalamazoo, Mich.) or from Hazelton Research Animals (Cumberland, Va.) were surgically implanted with a simple Thomas-type gastric cannula. After recovery from surgery, the dogs were trained to stand quietly, fully conscious, in Pavlov-type dog restraining slings and were acclimated to intravenous infusion of histamine dihydrochloride. During the course of these studies, no dog was used more than once a week. All dogs were deprived of food, but not water, for 18 hours prior to each assay. Each dog was initially infused with 0.15 M sodium chloride solution at a constant rate of […]. The volume of gastric secretions, collected in plastic bottles affixed to the cannula, were measured to the nearest 0.1 ml at 30 minute intervals. One of the following protocols was followed, depending on the route chosen for administration of test compound.
Intravenous dosing: Following a 30-minute basal secretion period, test compounds were administered intravenously (i.v.). At the end of an additional 30 minute period, the saline infusion was replaced with histamine dihydrochloride in saline administered at a rate 15 mcg per kilogram of body weight per hour. Histamine stimulation was maintained for a maximum of four hours during which time gastric secretions were collected every 30 minutes. The pH and titratable acidity were determined for samples from each collection period.
Intragastric dosing: Following a 30-minute basal secretion period, he collection bottles were removed, dosing plugs here inserted, and test compounds were administered intragastrically (i.g.) At the end of a 30-minute drug absorption period, the stomachs were emptied, the collection bottles were reattached, and collections were resumed at 30-minute intervals. Simultaneously, the saline infusion was replaced with a continuous intravenous infusion of histamine dihydrochloride in saline administered for four hours at a rate 15 mcg per kilogram of body weight per hour.
Intraduodenal dosing: Dogs were also equipped with duodenal cannulas for intraduodenal (i.d.) administration of test compounds. Dosing was otherwise performed as described for intragastric dosing.
Data from each protocol were analyzed for three gastric sample variables: volume of gastric juice, acid concentration, and total acid output. Percent inhibition for each four-hour experimental period was determined for each parameter by comparison with 3 to 4 controls in which […]. Estimates of ED50's were determined from dose response curves.

[2] = canine gastric mucosa microsomes, pH 6.0, 30 min preincubation at 37° C., read-out: (H+/K+)-ATPase IC50
[3] = at 100 μm, 30 min preincubation at 22° C.
[4] = iv, 3 mg/kg i.v., histamine-stimulated, four-hour period
[5] = intraduodenal, 3 mg/kg i.d., histamine-stimulated, four-hour period

CNc1ccccc1C[S+]([O-])c1nc2ccccc2[nH]1 (stereo not shown) [Example 32, 2-[(1H-Benzimidazol-2-ylsulfinyl)methyl]-N-methylbenzenamine monohydrate]
IC50 ((H+/K+)-ATPase; [2]): 0.64 µM
inhibition at 100 µM [1]: 52%
inhibition in vivo at 3 mg/kg (gastric acid secretion; intraduodenal): 21%

Cc1cc2nc([S+]([O-])Cc3ccccc3N)[nH]c2cc1C (stereo not shown) [Example 10, 2-[[(5,6-Dimethyl-1H-benzimidazol-2-yl)sulfinyl]methyl]benzenamine ¼ hydrate]
IC50 ((H+/K+)-ATPase; [2]): 13.5 µM
inhibition at 100 µM [1, 3]: 43%
inhibition in vivo at 3 mg/kg (gastric acid secretion; [4]): 44%

COc1c(C)cc(N)c(C[S+]([O-])c2nc3ccccc3[nH]2)c1C (stereo not shown) [Example 39, 2-[(1H-Benzimidazol-2-ylsulfinyl)methyl]-4-methoxy-3,5-dimethylbenzenamine]
IC50 ((H+/K+)-ATPase; [2]): 0.2 µM
melting point: 150 to 155 °C
inhibition at 100 µM [1, 3]: 46%
inhibition in vivo at 3 mg/kg (gastric acid secretion; [5]): 53%

CCOC(=O)c1ccc(N)c(C[S+]([O-])c2nc3ccccc3[nH]2)c1.CCOC(=O)c1ccc(N)c(C[S+]([O-])c2nc3ccccc3[nH]2)c1.O (stereo not shown) [Example 71, Ethyl 4-amino-3-[(1H-benzimidazol-2-ylsulfinyl)methyl]benzoate hemihydrate]
IC50 ((H+/K+)-ATPase; [2]): > 100 µM
Assemblin Inhibition % Inhibition at 100 μm [1, 3]: 44%
Gastric-Fistula Beagle % Inhibition (3 mg/kg dose) (gastric acid secretion; 3 mg/kg i.d., histamine-stimulated, four-hour period): 7 i.d. %

Cc1cc(Cl)cc(C[S+]([O-])c2nc3ccccc3[nH]2)c1N.Cc1cc(Cl)cc(C[S+]([O-])c2nc3ccccc3[nH]2)c1N.O (stereo not shown) [Example 57, 2-[(1H-Benzimidazol-2-ylsulfinyl)methyl]-4-chloro-6-methylbenzenamine hemihydrate]
IC50 ((H+/K+)-ATPase; [2]): 60 µM
Assemblin Inhibition % Inhibition at 100 μm [1, 3]: 66%

CCOc1ccc2[nH]c([S+]([O-])Cc3ccccc3N)nc2c1 (stereo not shown) [Example 45, 2-[[(5-Ethoxy-1H-benzimidazol-2-yl)sulfinyl]-methyl]benzenamine]
IC50 ((H+/K+)-ATPase; [2]): 24 µM
melting point: 154 to 155 °C
inhibition at 100 µM [1, 3]: 51%

COc1cccc(C[S+]([O-])c2nc3ccccc3[nH]2)c1N.COc1cccc(C[S+]([O-])c2nc3ccccc3[nH]2)c1N.O (stereo not shown) [Example 22, 2-((1H-Benzimidazol-2-ylsulfinyl)methyl]-6-methoxybenzenamine hemihydrate]
IC50 ((H+/K+)-ATPase; [2]): 9.3 µM
Assemblin Inhibition % Inhibition at 100 μm [1, 3]: 35%
Gastric-Fistula Beagle % Inhibition (3 mg/kg dose) (gastric acid secretion; 3 mg/kg i.v., histamine-stimulated, four-hour period): 70 i.v. %

COc1cc(Cl)c(C)c(C[S+]([O-])c2nc3ccccc3[nH]2)c1N (stereo not shown) [Example 59, 2-[(1H-Benzimidazol-2-ylsulfinyl)methyl]-4-chloro-6-methoxy-3-methylbenzenamine]
IC50 ((H+/K+)-ATPase; [2]): 2.7 µM
melting point: 163 to 164 °C
inhibition at 100 µM [1, 3]: 71%

CCOC(=O)c1ccc(N)c(C[S+]([O-])c2nc3ccc(OC)cc3[nH]2)c1 (stereo not shown) [Example 73, Ethyl 4-amino-3-[[(S-methoxy-1H-benzimidazol-2-yl)sulfinyl]methyl]benzoate]
IC50 ((H+/K+)-ATPase; [2]): > 100 µM
inhibition at 100 µM [1, 3]: 50%

Nc1ccccc1C[S+]([O-])c1nc2cc(C(F)(F)F)ccc2[nH]1 (stereo not shown) [Example 47]
IC50 ((H+/K+)-ATPase; [2]): 4.4 µM
melting point: 152 to 152.5 °C
inhibition at 100 µM [1, 3]: 40%
inhibition in vivo at 3 mg/kg (gastric acid secretion; [5]): 37%

CN(C)c1ncccc1C[S+]([O-])c1nc2ccccc2[nH]1 (stereo not shown) [Example 83, 3-[(1H-Benzimidazol-2-ylsulfinyl)methyl]-N,N-dimethyl-2-pyridinamine ⅓ hydrate]
IC50 ((H+/K+)-ATPase): 8.6 µM
inhibition at 100 µM [1, 3]: 83%
inhibition in vivo at 3 mg/kg (gastric acid secretion; [4]): 15%

COc1ccc2[nH]c([S+]([O-])Cc3ccccc3N)nc2c1 (stereo not shown) [Example 12, 2-[[(5-Methoxy-1H-benzimidazol-2-yl)sulfinyl]methyl]benzenamine]
IC50 ((H+/K+)-ATPase; [2]): 11 µM
melting point: 147 to 148 °C
inhibition at 100 µM [1, 3]: 26%
inhibition in vivo at 3 mg/kg (gastric acid secretion; [5]): 90%
